Laboratory results reported in publication PMC3694633, “Functional evolution of scorpion venom peptides with an inhibitor cystine knot fold” (Bioscience Reports, 2013).
Bridge positions count the residues as written; N and C are the ends. Ends that are not written are not given here. Peptide text beside a SMILES is read from it.

Columns and labels:
rKv1.1 = target: T1, rKv1.1 (Rattus norvegicus, UniProt P10499); test: two-electrode voltage-clamp, rKv1.1 in Xenopus oocytes; format: cell-based
T1 construct: expressed in transfected cells; host or cells: Xenopus oocytes injected with cRNA (clone in pGEM, T7 promoter)
Protocol: (§1) For the expression of Kv channels (rKv1.1–rKv1.4 and Shaker IR) and Nav channels (rNav1.1, rNav1.2, rNav1.4, rNav1.5 and mNav1.6) in Xenopus oocytes, the linearized plasmids were transcribed with the T7 or SP6 mMESSAGE-mMACHINE transcription kits (Supplementary Table S2, available at http://www.bioscirep.org/bsr/033/bsr033e047add.htm). Oocytes were digested for 1–2 h at room temperature in Ca^2+-free ND96 (in mM: NaCl, 96; KCl, 2; […]; MgCl2, 2 and Hepes, 5, adjusted to pH 7.4 with NaOH) containing 0.5 mg/ml collagenase (type I, sigma). Oocytes were injected with 0.5 ng of cRNA by NANOLITER 2000 (World Precision Instruments Inc.). The oocytes were incubated in ND96 solution supplemented with 50 mg/l gentamycin sulfate at 18°C.
(§2) Ion channel currents were recorded 1–3 days after injection with Oocyte Clamp OC-725C (Warner Instument Corp.) and Digidata 1440A (Axon CNS, Molecular Devices) controlled by pCLAMP10 software (Axon). […] All data were recorded from at least three independent oocytes (n≥3) and are presented as mean±S.E.. […] Data were analysed by pCLAMP 10 (Molecular Devices) and SigmaPlot 10.0 (Systat Software).

mice = settings: intracerebroventricular inoculation; cited from earlier work
Protocol: It has been reported that the lethality of MCa on mice after intracerebroventricular inoculation (LD50=20 μg/mouse); however, the molecular basis remains unsolved so far.

[1] = target: T2, Drosophila Shaker channel (Shaker IR) (Drosophila melanogaster, UniProt P08510, DEL6-46); test: two-electrode voltage-clamp, Shaker channel in Xenopus oocytes; format: cell-based; settings: for activity on the Shaker channel after C-terminal modification: Figure 6 modified peptides at 10 μM, n=3, GP deletion: results not shown
T2 construct: expressed in transfected cells; host or cells: Xenopus oocytes injected with cRNA (clone in pBluescript, T7 promoter)
Protocol: as §1
Ion channel currents were recorded 1–3 days after injection with Oocyte Clamp OC-725C (Warner Instument Corp.) and Digidata 1440A (Axon CNS, Molecular Devices) controlled by pCLAMP10 software (Axon). Pipettes were pulled by P-97 FLAMING/BROWN Micropipette Puller (Sutter Instrument Co.) with resistance of 0.1–1.0 MΩ when filled with 3 M KCl. rKv1.1–rKv1.4 and Shaker currents were evoked by 250 ms depolarization to 0 mV followed by a 250 ms pulse to −50 mV, from a holding potential of −90 mV. rNav1.1, 1.2, 1.4, 1.5 and mNav1.6 currents were evoked by 100 ms depolarization to −10 mV from a holding potential of −90 mV. All data were recorded from at least three independent oocytes (n≥3) and are presented as mean±S.E.. Leak subtraction was carried out with a P/4 protocol. Data were analysed by pCLAMP 10 (Molecular Devices) and SigmaPlot 10.0 (Systat Software).

[2] = stability to non-enzymatic hydrolysis during oxidative refolding; format: physicochemical; settings: 0.1 M Tris–HCl pH 8.0, 0.5 mM peptide, 25°C, 48 h; for chemical stability (non-enzymatic hydrolysis, Val35–Gly36 peptide bond): RP-HPLC / MALDI-TOF-MS
Protocol: λ-MK1 and λ-MK1a in their reduced form were chemically synthesized by ChinaPeptides Co., Ltd. and Scilight-Peptide Inc., respectively. For oxidative refolding, peptide samples were dissolved in 0.1 M Tris–HCl buffer (pH 8.0) to a final concentration of 0.5 mM and incubated at 25°C for 48 h. Peptides were purified by RP-HPLC (reversed-phase HPLC). Purity and molecular masses of peptides were determined by MALDI-TOF-MS on a Kratos PC Axima CFR plus (Shimadzu Co. LTD).

[3] = tested on: sarcoplasmic reticulum Ca^2+ release channels/ryanodine receptors of skeletal and cardiac muscles; settings: cited from earlier work
Description: The ICK fold is an exceptionally stable structural motif comprising an embedded ring formed by two disulfide bridges (Cys^1–Cys^4 and Cys^2–Cys^5) and their connecting backbone segments, which is threaded by a third disulfide bridge (Cys^3–Cys^6).

Na^+ channel = tested on: Na^+ channel; design: method as in PMID 21665957; settings: cited from earlier work
[4] = tested on: apamin-sensitive SKCa channels; settings: cited from earlier work
Description: This is further strengthened by the evolutionary conservation of these two residues in all the members of λ-KTx subgroup. To further investigate the functional significance of this region, we carried out C-terminal amidation, a common post-translational modification for many toxins from venoms of scorpions, spiders and cone snails. The amidated peptide (named λ-MK1a) was oxi ...

rKv1.4 = test: two-electrode voltage-clamp, rKv1.4 in Xenopus oocytes; format: cell-based; settings: 10 μM, 250 ms depolarization to 0 mV from −90 mV, mean±S.E. (n=3)
Protocol: as §1, §2

rKv1.3 = test: two-electrode voltage-clamp, rKv1.3 in Xenopus oocytes; format: cell-based; settings: 10 μM, 250 ms depolarization to 0 mV from −90 mV, mean±S.E. (n=3)
Protocol: as §1, §2

rKv1.2 = test: two-electrode voltage-clamp, rKv1.2 in Xenopus oocytes; format: cell-based; settings: 10 μM, 250 ms depolarization to 0 mV from −90 mV, mean±S.E. (n=3)
Protocol: as §1, §2

[5] = target: rKv1.1 (not stated (printed rKv1.1, called mammalian; r read as rat)) (UniProt P10499)
[6] = target: Drosophila Shaker K+ channel (Shaker IR) (Drosophila) (UniProt P08510)
[7] = target: rKv1.2 (not stated (printed rKv1.1-rKv1.4, called mammalian; r read as rat)) (UniProt P63142)
[8] = target: rKv1.4 (not stated (printed rKv1.4, called mammalian; r read as rat)) (UniProt P15385)
[9] = target: rKv1.3 (not stated (printed rKv1.1-rKv1.4, called mammalian; r read as rat)) (UniProt P15384)
[10] = target: rKv1.1 (not stated (printed rKv1.1, called mammalian; r read as rat)) (UniProt P10499); remark: listed apart in the source

T2 sequence (P08510 with tags, fused parts or gaps DEL6-46): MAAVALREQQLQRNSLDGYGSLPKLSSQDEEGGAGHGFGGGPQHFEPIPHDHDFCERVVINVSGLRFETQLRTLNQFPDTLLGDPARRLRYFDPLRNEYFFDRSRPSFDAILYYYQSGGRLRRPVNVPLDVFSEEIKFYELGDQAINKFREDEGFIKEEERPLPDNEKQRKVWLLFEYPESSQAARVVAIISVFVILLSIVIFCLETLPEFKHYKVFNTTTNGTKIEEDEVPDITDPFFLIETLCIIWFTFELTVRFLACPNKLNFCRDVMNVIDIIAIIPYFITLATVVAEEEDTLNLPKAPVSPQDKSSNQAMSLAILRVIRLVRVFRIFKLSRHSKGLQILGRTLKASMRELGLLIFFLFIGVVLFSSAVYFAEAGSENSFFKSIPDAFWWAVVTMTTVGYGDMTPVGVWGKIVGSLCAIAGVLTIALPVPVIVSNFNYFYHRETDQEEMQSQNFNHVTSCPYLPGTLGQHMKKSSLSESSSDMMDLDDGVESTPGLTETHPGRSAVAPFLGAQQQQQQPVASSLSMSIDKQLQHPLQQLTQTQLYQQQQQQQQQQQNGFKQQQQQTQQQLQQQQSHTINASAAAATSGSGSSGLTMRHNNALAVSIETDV
Sequence of rKv1.1 (not stated (printed rKv1.1, called mammalian; r read as rat)) (P10499 whole entry): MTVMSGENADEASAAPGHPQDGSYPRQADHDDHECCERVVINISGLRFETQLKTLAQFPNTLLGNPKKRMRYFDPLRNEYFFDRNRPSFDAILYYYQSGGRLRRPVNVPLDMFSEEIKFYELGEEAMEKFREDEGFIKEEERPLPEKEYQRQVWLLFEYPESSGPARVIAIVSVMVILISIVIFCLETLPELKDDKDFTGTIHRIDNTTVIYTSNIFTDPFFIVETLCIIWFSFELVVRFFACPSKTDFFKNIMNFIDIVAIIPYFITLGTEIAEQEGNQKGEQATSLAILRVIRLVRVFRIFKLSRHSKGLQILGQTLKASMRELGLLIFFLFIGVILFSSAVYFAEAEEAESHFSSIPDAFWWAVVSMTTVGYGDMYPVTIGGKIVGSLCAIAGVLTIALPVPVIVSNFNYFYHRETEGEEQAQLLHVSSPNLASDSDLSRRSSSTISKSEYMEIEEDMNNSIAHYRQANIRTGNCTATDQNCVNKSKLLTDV
T1 sequence (P10499 whole entry): as above
Sequence of rKv1.4 (not stated (printed rKv1.4, called mammalian; r read as rat)) (P15385 whole entry): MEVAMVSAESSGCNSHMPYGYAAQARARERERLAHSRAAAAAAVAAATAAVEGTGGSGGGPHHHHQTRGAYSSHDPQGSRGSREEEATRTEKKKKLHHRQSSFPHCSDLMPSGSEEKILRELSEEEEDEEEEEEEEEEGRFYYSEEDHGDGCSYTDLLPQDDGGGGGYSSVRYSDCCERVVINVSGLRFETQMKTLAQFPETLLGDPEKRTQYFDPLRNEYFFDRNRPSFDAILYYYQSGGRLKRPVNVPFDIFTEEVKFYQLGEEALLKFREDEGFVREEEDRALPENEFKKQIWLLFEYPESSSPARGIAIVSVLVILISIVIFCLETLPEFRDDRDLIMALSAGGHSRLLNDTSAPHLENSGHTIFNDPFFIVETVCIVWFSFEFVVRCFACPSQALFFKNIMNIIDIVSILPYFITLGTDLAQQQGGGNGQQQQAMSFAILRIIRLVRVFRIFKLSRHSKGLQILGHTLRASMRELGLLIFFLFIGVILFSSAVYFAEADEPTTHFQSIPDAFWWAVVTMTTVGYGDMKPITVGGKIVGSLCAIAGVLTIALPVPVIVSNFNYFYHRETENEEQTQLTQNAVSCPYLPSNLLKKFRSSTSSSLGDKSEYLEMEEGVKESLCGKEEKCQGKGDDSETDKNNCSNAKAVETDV
Sequence of rKv1.2 (not stated (printed rKv1.1-rKv1.4, called mammalian; r read as rat)) (P63142 whole entry): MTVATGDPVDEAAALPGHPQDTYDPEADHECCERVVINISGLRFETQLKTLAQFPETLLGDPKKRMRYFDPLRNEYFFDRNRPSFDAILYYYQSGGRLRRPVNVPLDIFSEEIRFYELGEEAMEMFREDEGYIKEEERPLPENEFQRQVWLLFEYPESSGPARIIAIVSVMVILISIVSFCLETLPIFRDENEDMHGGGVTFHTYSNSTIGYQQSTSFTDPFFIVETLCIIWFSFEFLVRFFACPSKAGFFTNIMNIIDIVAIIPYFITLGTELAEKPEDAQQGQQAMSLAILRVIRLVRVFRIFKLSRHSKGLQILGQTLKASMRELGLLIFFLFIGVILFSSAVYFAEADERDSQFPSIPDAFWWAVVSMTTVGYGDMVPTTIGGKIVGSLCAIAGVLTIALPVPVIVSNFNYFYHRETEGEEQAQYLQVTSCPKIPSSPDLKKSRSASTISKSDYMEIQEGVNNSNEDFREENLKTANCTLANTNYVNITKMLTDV
Sequence of Drosophila Shaker K+ channel (Shaker IR) (Drosophila) (P08510 whole entry): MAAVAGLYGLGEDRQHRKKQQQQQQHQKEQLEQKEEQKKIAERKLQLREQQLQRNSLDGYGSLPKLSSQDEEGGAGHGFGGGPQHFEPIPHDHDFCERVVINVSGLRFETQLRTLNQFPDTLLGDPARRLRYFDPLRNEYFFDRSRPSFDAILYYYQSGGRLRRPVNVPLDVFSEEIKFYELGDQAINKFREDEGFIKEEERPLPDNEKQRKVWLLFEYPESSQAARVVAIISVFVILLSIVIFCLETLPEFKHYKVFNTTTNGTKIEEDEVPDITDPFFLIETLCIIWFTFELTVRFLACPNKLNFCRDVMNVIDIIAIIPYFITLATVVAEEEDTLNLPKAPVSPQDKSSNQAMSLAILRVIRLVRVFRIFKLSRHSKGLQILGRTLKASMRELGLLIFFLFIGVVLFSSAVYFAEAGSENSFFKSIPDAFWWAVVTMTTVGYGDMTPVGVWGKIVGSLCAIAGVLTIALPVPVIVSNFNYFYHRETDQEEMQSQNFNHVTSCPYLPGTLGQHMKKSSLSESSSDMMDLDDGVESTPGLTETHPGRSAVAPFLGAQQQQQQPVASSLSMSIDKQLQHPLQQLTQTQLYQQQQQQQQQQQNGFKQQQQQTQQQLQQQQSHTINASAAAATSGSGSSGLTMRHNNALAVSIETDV
Sequence of rKv1.3 (not stated (printed rKv1.1-rKv1.4, called mammalian; r read as rat)) (P15384 whole entry): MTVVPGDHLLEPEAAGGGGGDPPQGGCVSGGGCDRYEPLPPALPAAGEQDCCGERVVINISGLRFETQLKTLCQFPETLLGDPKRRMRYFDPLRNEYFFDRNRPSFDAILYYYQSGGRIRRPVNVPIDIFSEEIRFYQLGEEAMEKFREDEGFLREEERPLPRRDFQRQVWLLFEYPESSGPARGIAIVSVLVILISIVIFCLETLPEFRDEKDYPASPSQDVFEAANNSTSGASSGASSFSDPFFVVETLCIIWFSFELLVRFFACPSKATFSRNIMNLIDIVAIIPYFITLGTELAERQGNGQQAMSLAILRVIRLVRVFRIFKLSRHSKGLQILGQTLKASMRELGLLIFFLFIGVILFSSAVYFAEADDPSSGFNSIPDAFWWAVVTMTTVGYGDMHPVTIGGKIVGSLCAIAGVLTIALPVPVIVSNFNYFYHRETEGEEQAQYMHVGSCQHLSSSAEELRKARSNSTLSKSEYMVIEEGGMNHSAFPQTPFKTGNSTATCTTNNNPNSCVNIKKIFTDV

CC[C@H](C)[C@@H]1NC(=O)[C@H](CC(N)=O)NC(=O)[C@H]([C@@H](C)O)NC(=O)CNC(=O)[C@H](CCCNC(=N)N)NC(=O)[C@H](CCCNC(=N)N)NC(=O)[C@H](CCCCN)NC(=O)[C@@H]2CSSC[C@@H]3NC(=O)[C@H](CC(C)C)NC(=O)[C@H](CCCCN)NC(=O)[C@H](CC(C)C)NC(=O)[C@H](Cc4c[nH]cn4)NC(=O)[C@@H]4CCCN4C(=O)[C@H](CC(C)C)NC(=O)[C@@H](NC(=O)[C@H](CC(=O)O)NC(=O)CN)CSSC[C@H](NC(=O)[C@H](CSSC[C@@H](C(=O)N[C@@H](CCCNC(=N)N)C(=O)O)NC(=O)[C@H](CCCNC(=N)N)NC(=O)[C@H](CCCCN)NC(=O)[C@H](CCC(=O)O)NC1=O)NC(=O)[C@H](CC(=O)O)NC(=O)[C@H](CCCCN)NC(=O)[C@H](CC(N)=O)NC(=O)[C@H](CCC(=O)O)NC(=O)[C@H](CCCCN)NC3=O)C(=O)N[C@@H](CO)C(=O)N[C@@H](CCCCN)C(=O)N[C@@H](CCCCN)C(=O)N2 [MCa, reference compound] (H-GDCLPHLKLCKENKDCCSKKCKRRGTNIEKRCR-OH; disulfide 3-17, 10-21, 16-32)
IC50 (rKv1.1; dose-response, each point mean±S.E. (n=3), read-out: IC50, inhibition of rKv1.1 currents): 21.9 ± 1.04 µM | LD50 (mice): 20 μg/mouse

CC[C@H](C)[C@@H]1NC(=O)[C@@H]2CSSC[C@@H]3NC(=O)[C@H](CCCCN)NC(=O)[C@H](CCCCN)NC(=O)[C@H](CC(N)=O)NC(=O)[C@H](CC(C)C)NC(=O)[C@H](CCCNC(=N)N)NC(=O)[C@H](CC(N)=O)NC(=O)[C@@H](NC(=O)CN)CSSC[C@H](NC(=O)[C@H](CSSC[C@@H](C(=O)N[C@@H](CCCNC(=N)N)C(=O)N4CCC[C@H]4C(=O)N[C@@H](CC(=O)O)C(=O)N[C@H](C(=O)NCC(=O)N4CCC[C@H]4C(=O)O)C(C)C)NC(=O)[C@H](Cc4ccc(O)cc4)NC(=O)[C@H](Cc4ccc(O)cc4)NC(=O)[C@H](CC(N)=O)NC(=O)[C@H](C(C)C)NC(=O)CNC(=O)[C@H]([C@@H](C)O)NC(=O)[C@H](CO)NC1=O)NC(=O)[C@H](CC(=O)O)NC(=O)[C@H](C)NC(=O)[C@H](CC(=O)O)NC(=O)[C@H](CO)NC(=O)[C@H](CC(N)=O)NC3=O)C(=O)N[C@@H](CCCNC(=N)N)C(=O)N[C@@H](Cc1ccc(O)cc1)C(=O)NCC(=O)N[C@@H](CCC(=O)O)C(=O)N[C@@H](CCCNC(=N)N)C(=O)N2 [λ-MK1] (H-GCNRLNKKCNSDADCCRYGERCISTGVNYYCRPDVGP-OH; disulfide 2-16, 9-22, 15-31)
reduction of Shaker channel currents ([1]; 10 μM, Xenopus oocytes, 250 ms depolarization to 0 mV from −90 mV, mean±S.E. (n=3)): 44.7±10.2% | IC50 ([1]; dose-response fitted by Hill equation, each point mean±S.E. (n=3), read-out: peptide concentration at half-maximal efficacy (IC50), Shaker channel): 12.3 ± 0.96 µM | chemical stability (non-enzymatic hydrolysis, Val35–Gly36 peptide bond) [2]: instability of a peptide bond between Val^35 and Gly^36 in an alkaline environment

imperatoxin A (GDCLPHLKRCKADNDCCGKKCKRRGTNAEKRCR; UniProt P59868 1-33, looked up)
activation of Ca2+ release channels/ryanodine receptors [3]: activators of sarcoplasmic reticulum Ca^2+ release channels/ryanodine receptors of skeletal and cardiac muscles

jingzhaotoxin-III: tarantula toxin, an Na^+ channel blocker with an ICK fold (DGECGGFWWKCGRGKPPCCKGYACSKTWGWCAVEAP; also: ICK fold, disulfide pairing not given here; UniProt P62520 28-63, looked up)
Na+ channel block (Na^+ channel): Na^+ channel blocker

leiurotoxin I: a scorpion α-KTx (AFCNLRMCQLSCRSLGLLGKCIGDKCECVKH; ends and bridges not checked; cysteine pairing not given here; UniProt P16341 1-31, looked up)
effect of C-terminal amidation on affinity for apamin-sensitive SKCa channels [4]: increase the affinity

λ-MK1a: the amidated peptide of λ-MK1, three disulfide bridges (GCNRLNKKCNSDADCCRYGERCISTGVNYYCRPDFGP-NH2; disulfide (positions not given here))
current reduction of rKv1.1 (rKv1.1; 10 μM, 250 ms depolarization to 0 mV from −90 mV, mean±S.E. (n=3)): 7.7±1.8% | activity on the Shaker channel after C-terminal modification ([1]; Xenopus oocytes): switched the target of λ-MK1 from the Shaker channel to mammalian Kv channels | activity on the Shaker channel after C-terminal modification ([1]; Xenopus oocytes, listed as C-terminal amidation): loss of activity on the Shaker channel | current reduction of rKv1.4 (rKv1.4): 35.7±4.26% | current reduction of rKv1.3 (rKv1.3): 9.0±3.2% | current reduction of rKv1.2 (rKv1.2): 25.3±3.6% | chemical stability (non-enzymatic hydrolysis, Val35–Gly36 peptide bond) [2]: completely inhibited the non-enzymatic hydrolysis of the peptide | refolding efficiency ([2]; RP-HPLC, relative to λ-MK1): largely improved its refolding efficiency

B1: maurocalcine (peptide)
chain: GDCLPHLKLCKENKDCCSKKCKRRGTNIEKRCR
IC50 of inhibition of rKv1.1 currents, dose-response, two-electrode voltage clamp in Xenopus oocytes [5]: 21.9 µM

B2: λ-MeuKTx-1 (peptide)
chain: GCNRLNKKCNSDADCCRYGERCISTGVNYYCRPDFGP
reduction of Shaker channel currents at 10 μM peptide, two-electrode voltage clamp in Xenopus oocytes [6]: 44.7%

B3: λ-MK1a (peptide)
chain: GCNRLNKKCNSDADCCRYGERCISTGVNYYCRPDFGP-NH2
modifications: disulfide (positions not given here); not fully specified (bridges); ends not checked; also: three disulfide bridges, pairing not given here
reduction of rKv1.2 currents at 10 μM peptide, two-electrode voltage clamp in Xenopus oocytes [7]: 25.3% | reduction of rKv1.4 currents at 10 μM peptide, two-electrode voltage clamp in Xenopus oocytes [8]: 35.7% | reduction of rKv1.3 currents at 10 μM peptide, two-electrode voltage clamp in Xenopus oocytes [9]: 9% | reduction of rKv1.1 currents at 10 μM peptide, two-electrode voltage clamp in Xenopus oocytes [10]: 7.7%
